Earlier results, collected in US6559178B1 (priority 2002, dated 2003).

Tested on: cancer
Conditions: Phase II testing

In the case of CC(=O)OC[C@]12CCC(C)=C[C@H]1O[C@@H]1[C@H](O)[C@@H](OC(C)=O)[C@@]2(C)[C@]12CO2 [Anguidine], the hematologic toxicity is given as “considerable hematologic toxicity” and the tumor response is given as “low tumor response”.
